This passage reports IC50 results from patent publication US10981911B2, “Imidazopyrrolopyridine as inhibitors of the JAK family of kinases” (Janssen Pharmaceutica NV, priority 2016, dated 2021).

Holding throughout (assay type): biochemical
For one experiment, the target named is JAK2-JH1JH2 (Homo sapiens (Human), UniProt O60674). Put plainly: Enzymatic inhibition assay (RapidFire HTMS), JAK2. Particulars: 30 μM ATP, 40 μM substrate. An excerpt: LC/MS grade Water and Acetonitrile (ACN), were purchased from HoneyWell, Burdick & Jackson (Muskegon, Mich., USA). Dimethylsulfoxide 99.8% (DMSO) and Trifluoroacetic Acid 99.5% (TFA) were purchased from EMD Chemical (Gibbstown, N.J., USA). Adenosine triphosphate (ATP), 4-Morpholinepropanesulfonic acid (MOPS), Magnesium chloride (MgCl2), ethylenediaminetetraacetic acid (EDTA), dithiothreitol (DTT), formic acid >95% (FA) and Tween-20 were purchased from Sigma (St Louis, Mo., USA). 384-well polypropylene plates, Cat #781280 were purchased from Greiner (Monroe, N.C.), RapidFire™ cartridge A C4 Column (Agilent Technologies, Santa Clara, Calif.).
The HTMS experiments were performed in positive ionization mode on a RapidFire 300 instrument (Agilent Technologies, Santa Clara, Calif.), coupled with an ABSiex QTrap 4000 system with an Electrospray Ionization source (RF-MS) (Concord, ON, Canada). […] The entire system was operated using the RapidFire software interfaced with Analyst software for the mass spectrometer.
11-point dosing series were made for each compound by serially diluting 1:3 or 1:4 in DMSO, with point 12 being a DMSO control. From the serial dilution plates, sample was transferred to a 384 wells assay plate (#781280, Greiner, Monroe, N.C.) using Labcyte Echo (Sunnyvale, Calif.), or Biosero ATS (San Diego, Calif.). The compounds were tested in duplicate. Column 12 was used for positive controls, and column 24 contained negative controls with no enzyme added. A compound from our internal collection, with inhibitory activity for JAK isoforms, was used as a reference compound. The final concentration of DMSO was ≤0.25% in a 20 μL reaction. […] The Tyk2 enzyme was pre-incubated with 2 mM ATP for 30 min prior to the reaction initiation. Immediately after the addition of the enzyme to the reaction mixture, the plate was centrifuged at 1000 rpm for 1 minute and incubated at 25° C. for 45 minutes for JAK 3 and 90 minutes for JAK1, JAK2 and Tyk2. The reaction was quenched by the addition of 20 μL of 0.5% TFA containing 0.15 μM of internal standard peptide using Multidrop Combi reagent dispenser (Thermo Scientific, Waltham, Mass.). […] After the quench, the assay plate was centrifuged at 3000 rpm for 3 minutes and sealed with pierceable aluminum foil (Cat #06644-001, Agilent) using a PlateLoc (Agilent Technologies, Santa Clara, Calif.). The plates then were transferred on to the RapidFire for the MS analysis. Compound inhibition was assessed by a decrease of the phosphorylated product levels in sample wells compared to the non-inhibited enzyme reaction.
The sample analysis on the RapidFire was performed using a mobile phase A consisting of Water/TFA/FA (100:0.01:0.1, v/v/v), a mobile phase B consisting of ACN/Water/TFA/FA (80:20:0.01:0.1, v/v/v). […] The samples were aspirated directly from the 384 assay plate and delivered onto RF-MS microscale solid-phase C4 extraction cartridge (Type A). The undesired component such as salt, cofactor, detergent and large protein were washed out and the retained analytes (substrate, product and IS) were coeluted directly onto the ABSiex Qtrap 4000 system.

The next experiment addresses Tyk2-JH1JH2 (Homo sapiens (Human), UniProt P29597, C1142A/C936A). Put plainly: Enzymatic inhibition assay (RapidFire HTMS), Tyk2. Particulars: 50 μM ATP, 200 μM substrate. In outline: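 Compounds were tested in duplicate as 11-point 1:3 or 1:4 DMSO dilutions (≤0.25% DMSO final) in 20 μL reactions at 25 °C for 90 min, with Tyk2 pre-incubated 30 min with 2 mM ATP. Reactions were quenched with TFA plus internal standard peptide, and phosphorylated product was quantified by RapidFire C4 SPE–ESI MS.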

A further experiment concerns the target JAK3-JH1JH2 (Homo sapiens (Human), UniProt P52333). Put plainly: Enzymatic inhibition assay (RapidFire HTMS), JAK3. Particulars: 150 μM ATP, 40 μM substrate. In outline:
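Compounds tested in duplicate over 11-point 1:3 or 1:4 dilution series; no-enzyme wells as negative control. After 45 min at 25 °C, TFA quench with internal standard, and phosphorylated product quantified by RapidFire–QTrap mass spectrometry relative to the uninhibited reaction.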

The target of another experiment is JAK1-JH1JH2 (Homo sapiens (Human), UniProt P23458). As to the kind of experiment: Enzymatic inhibition assay (RapidFire HTMS), JAK1. The conditions noted are these: 12.5 μM ATP, 200 μM substrate; read-out: JAK1-JH2JH1 IC50. In outline: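 Quenched with 0.5% TFA plus internal-standard peptide; phosphorylated product quantified by RapidFire C4 SPE–ESI-MS, 11-point 1:3 or 1:4 dilutions in duplicate.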
Sequence of JAK1-JH1JH2 (P23458 574-1154): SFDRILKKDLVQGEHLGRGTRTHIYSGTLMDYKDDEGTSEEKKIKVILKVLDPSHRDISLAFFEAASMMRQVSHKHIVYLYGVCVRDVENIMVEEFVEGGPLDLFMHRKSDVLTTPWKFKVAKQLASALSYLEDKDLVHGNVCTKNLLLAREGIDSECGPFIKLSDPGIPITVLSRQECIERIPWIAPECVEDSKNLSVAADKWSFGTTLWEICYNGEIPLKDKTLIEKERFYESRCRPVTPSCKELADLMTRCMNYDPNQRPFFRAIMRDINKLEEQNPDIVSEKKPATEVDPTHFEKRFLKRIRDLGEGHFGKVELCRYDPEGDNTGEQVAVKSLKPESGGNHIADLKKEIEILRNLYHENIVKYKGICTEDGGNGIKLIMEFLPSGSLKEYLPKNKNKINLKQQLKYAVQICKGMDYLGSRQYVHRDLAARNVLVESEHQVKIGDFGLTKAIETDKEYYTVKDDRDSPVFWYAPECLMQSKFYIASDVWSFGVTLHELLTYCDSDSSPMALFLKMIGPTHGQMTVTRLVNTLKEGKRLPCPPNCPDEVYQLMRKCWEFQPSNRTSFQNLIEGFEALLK

Sequence of JAK2-JH1JH2 (O60674 532-1132): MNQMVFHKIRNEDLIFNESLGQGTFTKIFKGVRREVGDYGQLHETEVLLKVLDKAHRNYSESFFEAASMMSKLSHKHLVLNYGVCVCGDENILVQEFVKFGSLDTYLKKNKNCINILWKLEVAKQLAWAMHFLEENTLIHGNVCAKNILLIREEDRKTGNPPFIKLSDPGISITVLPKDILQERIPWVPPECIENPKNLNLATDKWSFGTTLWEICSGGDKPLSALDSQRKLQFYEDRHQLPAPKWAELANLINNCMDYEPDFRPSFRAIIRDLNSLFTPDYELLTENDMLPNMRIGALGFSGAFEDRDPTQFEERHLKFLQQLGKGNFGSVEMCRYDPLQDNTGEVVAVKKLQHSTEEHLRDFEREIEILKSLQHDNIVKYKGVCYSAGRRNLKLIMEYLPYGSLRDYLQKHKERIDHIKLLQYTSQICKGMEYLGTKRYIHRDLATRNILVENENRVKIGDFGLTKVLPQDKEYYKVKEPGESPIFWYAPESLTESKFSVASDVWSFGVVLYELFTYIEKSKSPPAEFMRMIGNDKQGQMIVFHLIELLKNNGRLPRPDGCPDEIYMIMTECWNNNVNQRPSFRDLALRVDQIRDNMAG
Sequence of JAK3-JH1JH2 (P52333 512-1124): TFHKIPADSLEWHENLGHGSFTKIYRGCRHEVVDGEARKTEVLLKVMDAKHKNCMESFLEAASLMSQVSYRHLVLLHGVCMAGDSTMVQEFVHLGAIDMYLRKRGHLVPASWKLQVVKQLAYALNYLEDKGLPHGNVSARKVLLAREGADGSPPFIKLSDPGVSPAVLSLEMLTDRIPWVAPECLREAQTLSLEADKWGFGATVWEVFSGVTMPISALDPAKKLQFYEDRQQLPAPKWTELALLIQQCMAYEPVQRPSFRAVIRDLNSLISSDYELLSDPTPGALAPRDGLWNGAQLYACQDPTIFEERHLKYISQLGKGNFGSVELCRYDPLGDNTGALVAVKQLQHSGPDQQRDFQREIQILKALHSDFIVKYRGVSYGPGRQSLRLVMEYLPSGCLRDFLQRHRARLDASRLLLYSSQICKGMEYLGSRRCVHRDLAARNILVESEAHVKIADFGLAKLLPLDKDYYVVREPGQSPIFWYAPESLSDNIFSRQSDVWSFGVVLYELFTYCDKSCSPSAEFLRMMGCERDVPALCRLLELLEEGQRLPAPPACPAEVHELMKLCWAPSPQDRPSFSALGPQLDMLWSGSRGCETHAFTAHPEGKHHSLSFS
Sequence of Tyk2-JH1JH2 (P29597 580-1182 C936A/C1142A): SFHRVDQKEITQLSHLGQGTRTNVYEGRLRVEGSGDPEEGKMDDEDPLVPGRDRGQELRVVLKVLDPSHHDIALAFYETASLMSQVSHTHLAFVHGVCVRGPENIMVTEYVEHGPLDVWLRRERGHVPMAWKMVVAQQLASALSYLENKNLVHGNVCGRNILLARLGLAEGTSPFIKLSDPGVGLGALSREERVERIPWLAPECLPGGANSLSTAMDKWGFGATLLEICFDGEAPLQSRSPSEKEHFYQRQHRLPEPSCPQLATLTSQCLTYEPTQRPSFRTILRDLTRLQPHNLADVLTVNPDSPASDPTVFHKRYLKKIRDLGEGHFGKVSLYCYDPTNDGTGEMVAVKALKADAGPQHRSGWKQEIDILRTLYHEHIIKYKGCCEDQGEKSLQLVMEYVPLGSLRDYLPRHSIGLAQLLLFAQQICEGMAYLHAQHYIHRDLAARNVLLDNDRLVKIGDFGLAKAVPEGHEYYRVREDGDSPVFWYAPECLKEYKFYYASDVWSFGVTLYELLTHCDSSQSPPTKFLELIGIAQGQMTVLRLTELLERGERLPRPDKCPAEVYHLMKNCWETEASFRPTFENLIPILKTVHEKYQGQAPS

For `N#CC[C@H]1CC[C@H](n2c(CC(=O)NCc3ncc[nH]3)nc3cnc4[nH]ccc4c32)CC1` [Ex. 36, N-((1H-imidazol-2-yl)methyl)-2-(1-((1r,4r)-4-(cyanomethyl)cyclohexyl)-1,6-dihydroimidazo[4,5-d]pyrrolo[2,3-b]pyridin-2-yl)acetamide], the IC50 (in general, the concentration at which inhibition is half-maximal) at JAK2-JH1JH2 stood at 0.8 nM; on Tyk2-JH1JH2, 2.2 nM; against JAK3-JH1JH2, 12 nM; on JAK1-JH1JH2, 0.2 nM.

In the case of `N#CC[C@H]1CC[C@H](n2c(CC(=O)N[C@H]3C[C@H](O)C3)nc3cnc4[nH]ccc4c32)CC1` [Ex. 37, 2-(1-((1r,4r)-4-(Cyanomethyl)cyclohexyl)-1,6-dihydroimidazo[4,5-d]pyrrolo[2,3-b]pyridin-2-yl)-N-((1R,3R)-3-hydroxycyclobutyl)acetamide], the IC50 is 4.6 nM on JAK2-JH1JH2, 4.3 nM at Tyk2-JH1JH2, 38.8 nM against JAK3-JH1JH2 and 0.2 nM at JAK1-JH1JH2.

On to `N#CC[C@H]1CC[C@H](n2c(CC(=O)NCc3ccc(C#N)cc3)nc3cnc4[nH]ccc4c32)CC1` [Ex. 39, N-(4-Cyanobenzyl)-2-(1-((1r,4r)-4-(cyanomethyl)cyclohexyl)-1,6-dihydroimidazo[4,5-d]pyrrolo[2,3-b]pyridin-2-yl)acetamide], for which the half-inhibitory concentration (IC50) against JAK2-JH1JH2 was found to be 5.3 nM; at Tyk2-JH1JH2, 10 nM; on JAK3-JH1JH2 it was 142 nM; at JAK1-JH1JH2 it was 0.2 nM.

Turning to `N#CC[C@H]1CC[C@H](n2c(CNC(N)=O)nc3cnc4[nH]ccc4c32)CC1` [Ex. 40, 1-((1-((1r,4r)-4-(Cyanomethyl)cyclohexyl)-1,6-dihydroimidazo[4,5-d]pyrrolo[2,3-b]pyridin-2-yl)methyl)urea], the IC50 against JAK2-JH1JH2 is 1 nM; against Tyk2-JH1JH2, 0.3 nM; against JAK3-JH1JH2, 47 nM; on JAK1-JH1JH2 it was under 0.2 nM.

As for `N#CC[C@H]1CC[C@H](n2c(Cc3cscn3)nc3cnc4[nH]ccc4c32)CC1` [Ex. 41, 2-((1r,4r)-4-(2-(Thiazol-4-ylmethyl)imidazo[4,5-d]pyrrolo[2,3-b]pyridin-1(6H)-yl)cyclohexyl)acetonitrile], the IC50 against JAK2-JH1JH2 was 0.4 nM; on Tyk2-JH1JH2, 0.6 nM; against JAK3-JH1JH2 it was 19.9 nM; at JAK1-JH1JH2 it was under 0.2 nM.

Regarding `N#CC[C@H]1CC[C@H](n2c(CC(=O)N3CC[C@H](O)C3)nc3cnc4[nH]ccc4c32)CC1` [Ex. 42, 2-((1S,4r)-4-(2-(2-((S)-3-Hydroxypyrrolidin-1-yl)-2-oxoethyl)imidazo[4,5-d]pyrrolo[2,3-b]pyridin-1(6H)-yl)cyclohexyl)acetonitrile], the IC50 on JAK2-JH1JH2 was 24.4 nM; against Tyk2-JH1JH2, 7.8 nM; at JAK3-JH1JH2 it was 439 nM; on JAK1-JH1JH2, 0.2 nM.

For the molecule `N#CC[C@H]1CC[C@H](n2c(CC(=O)NCCOc3ccncc3)nc3cnc4[nH]ccc4c32)CC1` [Ex. 43, 2-(1-((1r,4r)-4-(Cyanomethyl)cyclohexyl)-1,6-dihydroimidazo[4,5-d]pyrrolo[2,3-b]pyridin-2-yl)-N-(2-(pyridin-4-yloxy)ethyl)acetamide], the IC50 came to 5.1 nM against JAK2-JH1JH2, 5.7 nM against Tyk2-JH1JH2, 87.4 nM at JAK3-JH1JH2 and 0.2 nM at JAK1-JH1JH2.

On to `CC(C)(C)CNC(=O)Cc1nc2cnc3[nH]ccc3c2n1[C@H]1CC[C@H](CC#N)CC1` [Ex. 44, 2-(1-((1r,4r)-4-(Cyanomethyl)cyclohexyl)-1,6-dihydroimidazo[4,5-d]pyrrolo[2,3-b]pyridin-2-yl)-N-neopentylacetamide], for which the IC50 against JAK2-JH1JH2 stood at 5.4 nM; against Tyk2-JH1JH2, 6 nM; against JAK3-JH1JH2, 52.3 nM; at JAK1-JH1JH2 it was 0.2 nM.

Take `N#CC[C@H]1CC[C@H](n2c(CC(=O)NCc3ccc(F)cc3)nc3cnc4[nH]ccc4c32)CC1` [Ex. 45, 2-(1-((1r,4r)-4-(Cyanomethyl)cyclohexyl)-1,6-dihydroimidazo[4,5-d]pyrrolo[2,3-b]pyridin-2-yl)-N-(4-fluorobenzyl)acetamide]: the IC50 amounted to 6.1 nM against JAK2-JH1JH2, 12.2 nM against Tyk2-JH1JH2, 183 nM on JAK3-JH1JH2 and 0.2 nM on JAK1-JH1JH2.

`N#CC[C@H]1CC[C@H](n2c(CNC(=O)Oc3ccccc3)nc3cnc4[nH]ccc4c32)CC1` [Ex. 46, Phenyl ((1-((1r,4r)-4-(cyanomethyl)cyclohexyl)-1,6-dihydroimidazo[4,5-d]pyrrolo[2,3-b]pyridin-2-yl)methyl)carbamate]: the IC50 at JAK2-JH1JH2 came out at 14.5 nM; on Tyk2-JH1JH2, 5.5 nM; on JAK3-JH1JH2, 214 nM; at JAK1-JH1JH2, 0.2 nM.

As to `N#CC[C@H]1CC[C@H](n2c(CC(=O)N[C@H]3CC[C@@H](O)CC3)nc3cnc4[nH]ccc4c32)CC1` [Ex. 47, 2-(1-((1r,4r)-4-(Cyanomethyl)cyclohexyl)-1,6-dihydroimidazo[4,5-d]pyrrolo[2,3-b]pyridin-2-yl)-N-((1S,4S)-4-hydroxycyclohexyl)acetamide], the IC50 against JAK2-JH1JH2 was determined as 2.3 nM; against Tyk2-JH1JH2, 5.1 nM; against JAK3-JH1JH2, 38.9 nM; on JAK1-JH1JH2 it was 0.2 nM.

For `N#CC[C@H]1CC[C@H](n2c(CC(=O)N3CCCC3)nc3cnc4[nH]ccc4c32)CC1` [Ex. 49, 2-((1r,4r)-4-(2-(2-Oxo-2-(pyrrolidin-1-yl)ethyl)imidazo[4,5-d]pyrrolo[2,3-b]pyridin-1(6H)-yl)cyclohexyl)acetonitrile], the IC50 came out at 43.5 nM on JAK2-JH1JH2, 4.2 nM against Tyk2-JH1JH2, 249 nM on JAK3-JH1JH2 and 0.2 nM on JAK1-JH1JH2.

In the case of `N#CC[C@H]1CC[C@H](n2c(C(=O)N3CCC(O)(c4ccccc4)C3)nc3cnc4[nH]ccc4c32)CC1` (stereo partly shown) [Ex. 50, 2-((1r,4r)-4-(2-(3-Hydroxy-3-phenylpyrrolidine-1-carbonyl)imidazo[4,5-d]pyrrolo[2,3-b]pyridin-1(6H)-yl)cyclohexyl)acetonitrile], the IC50 turned out to be 4 nM against JAK2-JH1JH2, 21 nM on Tyk2-JH1JH2, 99.9 nM on JAK3-JH1JH2 and 0.2 nM on JAK1-JH1JH2.

Regarding `N#CC[C@H]1CC[C@H](n2c(-c3cnc(N)nc3)nc3cnc4[nH]ccc4c32)CC1` [Ex. 51, 2-((1r,4r)-4-(2-(2-Aminopyrimidin-5-yl)imidazo[4,5-d]pyrrolo[2,3-b]pyridin-1(6H)-yl)cyclohexyl)acetonitrile], the IC50 turned out to be 3.2 nM at JAK2-JH1JH2, 5.8 nM against Tyk2-JH1JH2, 127 nM on JAK3-JH1JH2 and 0.2 nM at JAK1-JH1JH2.

As for `N#CC[C@H]1CC[C@H](n2c(-c3ccnc(N)n3)nc3cnc4[nH]ccc4c32)CC1` [Ex. 53, 2-((1r,4r)-4-(2-(2-Aminopyrimidin-4-yl)imidazo[4,5-d]pyrrolo[2,3-b]pyridin-1(6H)-yl)cyclohexyl)acetonitrile], the IC50 is 3.2 nM at JAK2-JH1JH2, 9 nM against Tyk2-JH1JH2, 61.8 nM at JAK3-JH1JH2 and 0.2 nM on JAK1-JH1JH2.

As for `N#CC[C@H]1CC[C@H](n2c(CC(=O)NC34CCC(C(N)=O)(CC3)C4)nc3cnc4[nH]ccc4c32)CC1` [Ex. 54, 4-(2-(1-((1r,4r)-4-(Cyanomethyl)cyclohexyl)-1,6-dihydroimidazo[4,5-d]pyrrolo[2,3-b]pyridin-2-yl)acetamido)bicyclo[2.2.1]heptane-1-carboxamide], the IC50 is 2.1 nM against JAK2-JH1JH2, 4.2 nM against Tyk2-JH1JH2, 42 nM at JAK3-JH1JH2 and 0.2 nM on JAK1-JH1JH2.
